Measured values from ChEMBL document CHEMBL1131458, “Design and synthesis of malonic acid-based inhibitors of human neutrophil collagenase (MMP8)” (J Med Chem, 1998).

Each compound was assayed against Neutrophil collagenase (Homo sapiens, UniProt P22894) (assay: Inhibition of Matrix metalloprotease-8 (Human neutrophil collagenase, MMP-8)).
Sequence of Neutrophil collagenase (P22894 whole entry): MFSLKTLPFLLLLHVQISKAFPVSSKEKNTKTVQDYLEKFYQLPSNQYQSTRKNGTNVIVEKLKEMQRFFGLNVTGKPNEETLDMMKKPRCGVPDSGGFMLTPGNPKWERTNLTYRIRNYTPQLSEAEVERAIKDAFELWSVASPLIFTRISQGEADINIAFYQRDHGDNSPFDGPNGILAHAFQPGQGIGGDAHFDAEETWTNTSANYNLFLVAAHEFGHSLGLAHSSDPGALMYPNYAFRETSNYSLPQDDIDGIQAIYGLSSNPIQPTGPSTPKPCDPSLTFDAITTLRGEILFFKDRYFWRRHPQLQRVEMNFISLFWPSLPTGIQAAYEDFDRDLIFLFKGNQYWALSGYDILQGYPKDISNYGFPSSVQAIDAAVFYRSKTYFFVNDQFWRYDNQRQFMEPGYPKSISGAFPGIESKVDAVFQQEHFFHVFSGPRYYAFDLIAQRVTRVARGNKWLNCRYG

SMILES	Ki
O=C(NO)C(Cc1ccccc1)C(=O)NCc1ccccc1 (stereo not given)	3.1 µM
CC(C)CC(C(=O)NO)C(=O)N[C@@H](CCc1ccccc1)C(=O)NCCc1ccc(C(=O)O)cc1 (stereo not given in full)	20 µM
CCCCCCCCNC(=O)C(CC(C)C)C(=O)NO (stereo not given)	0.24 µM
CCOC(=O)C(CCc1ccccc1)C(=O)NO (stereo not given)	189 µM
CC(C)CC(C(=O)NO)C(=O)Nc1ccccc1C(=O)NCc1ccccc1 (stereo not given)	36 µM
O=C(NO)C(CCc1ccccc1)C(=O)NCCCc1ccccc1 (stereo not given)	0.49 µM
CC(C)CC(C(=O)NO)C(=O)N[C@H](C)C(=O)NCc1ccccc1 (stereo not given in full)	194 µM
CC(C)CC(C(=O)NO)C(=O)NCCCc1ccccc1 (stereo not given)	0.54 µM
O=C(NO)C(CCc1ccccc1)C(=O)NCc1ccccc1 (stereo not given)	2.3 µM
CCOC(=O)C(C(=O)NO)c1ccccc1 (stereo not given)	98 µM
CC(C)CC(C(=O)NO)C(=O)NC(Cc1ccccc1)C(=O)NCc1ccccc1 (stereo not given)	25 µM
CC(C)CC(C(=O)NO)C(=O)NC(CO)C(=O)NCc1ccccc1 (stereo not given)	35 µM
O=C(NO)C(Cc1ccccc1)C(=O)N1CCOCC1 (stereo not given)	50 µM
Cc1ccc(CCNC(=O)[C@H](CCc2ccccc2)NC(=O)C(O)C(=O)NO)cc1 (stereo not given in full)	1.6 µM
Cc1ccc(CCNC(=O)[C@H](CCc2ccccc2)NC(=O)C(CC(C)C)C(=O)NO)cc1 (stereo not given in full)	1.4 µM
CC(C)C[C@H](C(=O)NO)C(=O)N[C@@H](C)C(=O)NCC(N)=O	121 µM
CC(C)CC(C(=O)NO)C(=O)N[C@@H](CCc1ccccc1)C(=O)NCCc1ccc(O)cc1 (stereo not given in full)	12 µM
CC(C)CC(C(=O)NO)C(=O)NC(CC(N)=O)C(=O)NCc1ccccc1 (stereo not given)	55 µM
Cc1ccc(CCNC(=O)[C@H](CCc2ccccc2)NC(=O)C(CCc2ccccc2)C(=O)NO)cc1 (stereo not given in full)	4 µM
O=C(NO)C(O)C(=O)NCCCc1ccccc1 (stereo not given)	2.3 µM
CC(C)CC(C(=O)NO)C(=O)NC(CC(N)=O)C(=O)NCc1cccc(N)c1 (stereo not given)	26 µM
O=C(NO)C(Cc1ccccc1)C(=O)NCCCc1ccccc1 (stereo not given)	0.56 µM
Cc1ccc(CCNC(=O)[C@H](CCc2ccccc2)NC(=O)C(Cc2ccccc2)C(=O)NO)cc1 (stereo not given in full)	1.7 µM
CC(C)CC(C(=O)NO)C(=O)NC(C)C(=O)NCc1ccccc1 (stereo not given)	50 µM
CCOC(=O)C(CC(C)C)C(=O)NO (stereo not given)	190 µM
CCOC(=O)C(Cc1ccccc1)C(=O)NO (stereo not given)	53 µM
COC(=O)c1ccc(CCNC(=O)[C@H](CCc2ccccc2)NC(=O)C(CC(C)C)C(=O)NO)cc1 (stereo not given in full)	9.6 µM
CC(C)CC(C(=O)NO)C(=O)N1CCCC1C(=O)NCc1ccccc1 (stereo not given)	168 µM
CC(C)CC(C(=O)NO)C(=O)NC(CC(=O)O)C(=O)NCc1ccccc1 (stereo in doubt; 12)	136 µM
CC(C)CC(C(=O)NO)C(=O)NC(CC(=O)O)C(=O)NCc1ccccc1 (stereo in doubt; 12b)	88 µM
